The results in this text go back to PMC8148554, “Characterization and Regulation of the Acetolactate Synthase Genes Involved in Acetoin Biosynthesis in Acetobacter pasteurianus” (Foods, 2021).

In this experiment the target is T1, AlsS2 (Acetobacter pasteurianus, UniProt A0A401X088).
T1 construct: gene NBRC3278_0356; full length, gene 1695 bp (564 residues with stop codon in the gene); pET-22b(+) NdeI/XhoI, E. coli BL21(DE3), His tag (C-terminal by cloning, no stop in primer); about 59 kDa
T1 sequence (A0A401X088 1-564): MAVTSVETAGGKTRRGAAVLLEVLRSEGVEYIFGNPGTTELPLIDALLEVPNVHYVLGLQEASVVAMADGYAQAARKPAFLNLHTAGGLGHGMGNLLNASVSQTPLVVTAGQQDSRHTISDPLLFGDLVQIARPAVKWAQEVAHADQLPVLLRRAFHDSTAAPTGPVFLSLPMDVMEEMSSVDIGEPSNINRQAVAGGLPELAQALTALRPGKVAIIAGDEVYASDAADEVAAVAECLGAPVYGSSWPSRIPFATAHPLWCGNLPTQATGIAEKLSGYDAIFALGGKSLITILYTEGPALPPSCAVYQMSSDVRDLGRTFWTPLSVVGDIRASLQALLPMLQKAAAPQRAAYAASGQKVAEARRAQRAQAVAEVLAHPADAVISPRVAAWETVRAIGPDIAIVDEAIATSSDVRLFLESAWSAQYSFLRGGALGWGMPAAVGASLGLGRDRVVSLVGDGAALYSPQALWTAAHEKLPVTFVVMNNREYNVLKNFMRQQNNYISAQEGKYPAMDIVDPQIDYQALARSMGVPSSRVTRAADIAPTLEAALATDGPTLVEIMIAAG
The experiment in a line: GC detection of benzaldehyde formed. Format: biochemical. The following applies: 10 mM benzoylformate, 0.5 mM MgCl2, 1 mM TPP, 100 mM sodium phosphate pH 7.0, 37 °C, 10 h.

For `O=C(O)C(=O)c1ccccc1` [benzoylformate], the “GC detection of benzaldehyde formed” value was “Benzaldehyde was detected in the reaction mixture”.
